Assay results published in patent US7829572B2 (Pfizer Inc, priority 2006, dated 2010).

molecular target: T1, calcium receptor (CasR) (Homo sapiens, UniProt P41180); assay: FLIPR Assay for Evaluating the Potency and Selectivity of Test Compounds; format: cell-based; settings: HEK 293 cells expressing CasR; 30 minutes pre-incubation; stimulation by 1.7 mM Ca2+; read 42 seconds after stimulation
T1 construct: expressed in transfected cells; host or cells: HEK 293
T1 sequence (P41180 20-1078): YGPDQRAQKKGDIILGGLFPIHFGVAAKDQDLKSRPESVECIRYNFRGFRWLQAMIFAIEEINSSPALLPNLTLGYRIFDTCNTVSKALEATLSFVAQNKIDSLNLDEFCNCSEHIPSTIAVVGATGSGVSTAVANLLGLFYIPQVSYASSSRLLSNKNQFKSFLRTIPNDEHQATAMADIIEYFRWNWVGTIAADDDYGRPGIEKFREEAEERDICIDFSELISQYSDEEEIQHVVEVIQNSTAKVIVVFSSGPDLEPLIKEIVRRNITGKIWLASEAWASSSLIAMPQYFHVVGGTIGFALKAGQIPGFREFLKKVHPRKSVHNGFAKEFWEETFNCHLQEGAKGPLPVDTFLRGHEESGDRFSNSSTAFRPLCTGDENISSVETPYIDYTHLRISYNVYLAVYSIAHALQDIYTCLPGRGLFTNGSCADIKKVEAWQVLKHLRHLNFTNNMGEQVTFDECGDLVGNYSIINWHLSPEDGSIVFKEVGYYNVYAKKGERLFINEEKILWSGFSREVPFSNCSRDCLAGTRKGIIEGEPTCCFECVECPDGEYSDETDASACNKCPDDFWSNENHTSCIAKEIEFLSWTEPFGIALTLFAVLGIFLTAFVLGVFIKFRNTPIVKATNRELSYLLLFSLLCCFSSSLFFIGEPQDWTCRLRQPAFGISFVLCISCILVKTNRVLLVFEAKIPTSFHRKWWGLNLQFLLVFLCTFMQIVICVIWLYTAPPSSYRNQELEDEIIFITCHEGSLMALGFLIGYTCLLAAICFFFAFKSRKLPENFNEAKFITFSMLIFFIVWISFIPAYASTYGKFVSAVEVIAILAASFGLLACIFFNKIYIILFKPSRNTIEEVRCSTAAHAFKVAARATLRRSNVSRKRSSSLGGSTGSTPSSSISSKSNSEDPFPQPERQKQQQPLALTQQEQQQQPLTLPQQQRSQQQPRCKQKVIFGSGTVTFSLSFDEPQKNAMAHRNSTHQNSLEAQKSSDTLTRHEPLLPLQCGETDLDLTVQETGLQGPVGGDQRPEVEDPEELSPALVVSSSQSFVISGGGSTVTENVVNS
From the text: FLIPR Assay for Evaluating the Potency and Selectivity of Test Compounds
Human kidney cell (HEK 293) expressing the calcium receptor (CasR) are used to detect antagonists of the receptor using Fluorometric imaging plate reader (FLIPR, Molecular Devices, Sunnyvale Calif.). Receptor activation by extracellular calcium results in the release of calcium from intracellular stores into the cytosol. A fluorescent indicator (Fluo-4) is internalized by the cells from growth media and interacts with calcium released into the cytosol to provide a means of quantifying intracellular Ca^2+ levels and receptor agonism/antagonism. Fluorescence intensity is detected by the FLIPR CCD camera and traced as a function of time. Potential antagonists are identified by their ability to decrease this fluorescent response.
Prior to the addition of test compound cells are washed with a 10 mM HEPES buffer solution. The test compound, for example the compound of Example 1, is added at various doses (from 1 µM to 3 nM) and pre-incubated with cells for 30 minutes followed by stimulation of the CasR by the addition of 1.7 mM Ca^2+. IC50 values are based on the ability of the cells to inhibit the Ca^2+ induced increase in intracellular Ca^2+. Fluorescence signal is read 42 seconds after the stimulation of the CasR by the addition of 1.7 mM Ca^2+.
The following table provides FLIPR IC50 data for the specified Examples. The IC50s are reported as micromolar concentration with n being the number of times the particular compound was assayed.

Structure (SMILES)	IC50 [µM]
CC(Cc1ccccc1F)n1c(-c2ncccc2O)nc2ccnc(C(F)(F)F)c2c1=O (racemic) [Example 6, (R, S)-2-(3-Hydroxy-pyridin-2-yl)-3-(1-methyl-2-(2-fluorophenyl)ethyl)-5-trifluoromethyl-3H-pyrido[4,3-d]pyrimidin-4-one]	0.05
CC(Cc1ccccc1F)n1c(-c2ncccc2O)nc2ccnc(C(F)(F)F)c2c1=O (single isomer, unassigned) [Example 6a, 2-(3-Hydroxy-pyridin-2-yl)-3-(1-methyl-2-(2-fluorophenyl)ethyl)-5-trifluoromethyl-3H-pyrido[4,3-d]pyrimidin-4-one]	0.05
O=c1c2c(C(F)(F)F)nccc2nc(-c2cccc(F)c2O)n1CCc1ccccc1 [Example 2, 2-(3-Fluoro-2-hydroxy-phenyl)-3-phenethyl-5-trifluoromethyl-3H-pyrido[4,3-d]pyrimidin-4-one]	0.62
O=c1c2c(C(F)(F)F)nccc2nc(-c2ncccc2O)n1CCc1ccccc1 [Example 3, 2-(3-Hydroxy-pyridin-2-yl)-3-phenethyl-5-trifluoromethyl-3H-pyrido[4,3-d]pyrimidin-4-one]	0.39
C[C@H](Cc1ccccc1)n1c(-c2ccccc2O)nc2ccnc(C(F)(F)F)c2c1=O [Example 4a, (R)-2-(2-Hydroxy-phenyl)-3-(1-methyl-2-phenyl-ethyl)-5-trifluoromethyl-3H-pyrido[4,3-d]pyrimidin-4-one]	0.06
Cc1cc2nc(-c3ccccc3O)n(CCc3ccccc3)c(=O)c2c(C(F)(F)F)n1 [Example 10, 2-(2-Hydroxy-phenyl)-7-methyl-3-(phenyl-ethyl)-5-trifluoromethyl-3H-pyrido[4,3-d]pyrimidin-4-one]	0.12
O=c1c2c(C(F)(F)F)nccc2nc(-c2ncccc2O)n1CCc1ccc(F)c(F)c1 [Example 13, 3-[2-(3,4-Difluoro-phenyl)-ethyl]-2-(3-hydroxy-pyridin-2-yl)-5-trifluoromethyl-3H-pyrido[4,3-d]pyrimidin-4-one]	0.07
O=c1c2c(C(F)(F)F)nccc2nc(-c2ccccc2O)n1CCc1ccc(F)c(F)c1 [Example 15]	0.16
CC(C)Nc1nccc2nc(-c3ccccc3O)n(CCc3ccccc3)c(=O)c12 [Example 17, 2-(2-Hydroxy-phenyl)-5-isopropylamino-3-phenethyl-3H-pyrido[4,3-d]pyrimidin-4-one]	11
O=c1c2c(N3CCCC3)nccc2nc(-c2ccccc2O)n1CCc1ccccc1 [Example 18, 2-(2-Hydroxy-phenyl)-3-phenethyl-5-pyrrolidin-1-yl-3H-pyrido[4,3-d]pyrimidin-4-one]	12.3
CN(C)c1nccc2nc(-c3ccccc3O)n(CCc3ccccc3)c(=O)c12 [Example 21, 5-Dimethylamino-2-(2-hydroxy-phenyl)-3-phenethyl-3H-pyrido[4,3-d]pyrimidin-4-one]	13.8
O=c1c2c(Cc3ccccc3)nccc2nc(-c2ccccc2O)n1CCc1ccccc1 [Example 25, 5-Benzyl-2-(2-hydroxy-phenyl)-3-phenethyl-3H-pyrido[4,3-d]pyrimidin-4-one]	3.01

The next lines start with the values.

IC50 [µM]	Structure (SMILES)
0.48	O=c1c2c(C(F)(F)F)nccc2nc(-c2ncccc2O)n1CCC1CCCCO1 (racemic) [Example 49, (R, S)-2-(3-hydroxypyridin-2-yl)-3-(2-(tetrahydro-2H-pyran-2-yl)ethyl)-5-(trifluoromethyl)pyrido[4,3-d]pyrimidin-4(3H)-one]
1.4	CC(Cc1ccccc1F)n1c(-c2ncccc2O)nc2ccnc(C(F)(F)F)c2c1=O (single isomer, unassigned) [Example 6b, 2-(3-Hydroxy-pyridin-2-yl)-3-(1-methyl-2-(2-fluorophenyl)ethyl)-5-trifluoromethyl-3H-pyrido[4,3-d]pyrimidin-4-one]
0.05	O=c1c2c(C(F)(F)F)nccc2nc(-c2ccccc2O)n1CCc1ccccc1 [Example 1, 2-(2-Hydroxy-phenyl)-3-phenethyl-5-trifluoromethyl-3H-pyrido[4,3-d]pyri-midin-4-one]
0.16	C[C@@H](Cc1ccccc1)n1c(-c2ccccc2O)nc2ccnc(C(F)(F)F)c2c1=O [Example 4b, (S)-2-(2-Hydroxy-phenyl)-3-(1-methyl-2-phenyl-ethyl)-5-trifluoromethyl-3H-pyrido[4,3-d]pyrimidin-4-one]
0.02	C[C@H](Cc1ccccc1)n1c(-c2ncccc2O)nc2ccnc(C(F)(F)F)c2c1=O [Example 5, (R)-2-(3-Hydroxy-pyridin-2-yl)-3-(1-methyl-2-phenyl-ethyl)-5-trifluoromethyl-3H-pyrido[4,3-d]pyrimidin-4-one]
0.13	O=c1c2c(C(F)(F)F)nccc2nc(-c2ccccc2O)n1CCc1ccccc1F [Example 7]
0.09	O=c1c2c(C(F)(F)F)nccc2nc(-c2ccccc2O)n1CCc1cccc(F)c1 [Example 8]
0.29	O=c1c2c(C(F)(F)F)nccc2nc(-c2cccc(F)c2O)n1CCc1ccccc1F [Example 9, 2-(3-Fluoro-2-hydroxy-phenyl)-3-[2-(2-fluoro-phenyl)-ethyl]-5-trifluoromethyl-3H-pyrido[4,3-d]pyrimidin-4-one]
0.46	O=c1c2c(C(F)(F)F)nccc2nc(-c2cccc(F)c2O)n1CCc1cccc(F)c1 [Example 11, 2-(3-Fluoro-2-hydroxy-phenyl)-3-[2-(3-fluoro-phenyl)-ethyl]-5-trifluoromethyl-3H-pyrido[4,3-d]pyrimidin-4-one]
0.25	O=c1c2c(C(F)(F)F)nccc2nc(-c2ncccc2O)n1CCc1ccccc1F [Example 12, 3-[2-(2-Fluoro-phenyl)-ethyl-]2-(3-hydroxy-pyridin-2-yl)-5-trifluoromethyl-3H-pyrido[4,3-d]pyrimidin-4-one]
0.17	O=c1c2c(C(F)(F)F)nccc2nc(-c2ncccc2O)n1CCc1ccc(F)cc1F [Example 14, 3-[2-(2,4-Difluoro-phenyl)-ethyl]-2-(3-hydroxy-pyridin-2-yl)-5-trifluoromethyl-3H-pyrido[4,3-d]pyrimidin-4-one]
10.8	CNc1nccc2nc(-c3ccccc3O)n(CCc3ccccc3)c(=O)c12 [Example 16, 2-(2-Hydroxy-phenyl)-5-methylamino-3-phenethyl-3H-pyrido[4,3-d]pyrimidin-4-one]
> 100	CN1CCN(c2nccc3nc(-c4ccccc4O)n(CCc4ccccc4)c(=O)c23)CC1 [Example 19, 2-(2-Hydroxy-phenyl)-5-(4-methyl-piperazin-1-yl)-3-phenethyl-3H-pyrido[4,3-d]pyrimidin-4-one]
> 100	O=c1c2c(N3CCNCC3)nccc2nc(-c2ccccc2O)n1CCc1ccccc1 [Example 20, 2-(2-Hydroxy-phenyl)-3-phenethyl-5-piperazin-1-yl-3H-pyrido[4,3-d]pyrimidin-4-one]
> 100	O=c1c2c(N3CCOCC3)nccc2nc(-c2ccccc2O)n1CCc1ccccc1 [Example 22, 2-(2-Hydroxy-phenyl)-5-morpholin-4-yl-3-phenethyl-3H-pyrido[4,3-d]pyrimidin-4-one]
13.7	O=c1c2c(N3CCC3)nccc2nc(-c2ccccc2O)n1CCc1ccccc1 [Example 23, 5-Azetidin-1-yl-2-(2-hydroxy-phenyl)-3-phenethyl-3H-pyrido[4,3-]d-pyrimidin-4-one]
2.6	O=c1c2c(-c3ccccc3)nccc2nc(-c2ccccc2O)n1CCc1ccccc1 [Example 24, 2-(2-Hydroxy-phenyl)-3-phenethyl-5-phenyl-3H-pyrido[4,3-d]pyrimidin-4-one]
